This is an account of results in PubChem BioAssay (NCI).

Among the test systems are CCRF-CEM leukemia; NCI-H522 lung; RXF 393 renal; UACC-257 melanoma; HT29 colon; SF-539 CNS; TK-10 renal; BT-549 breast; T-47D breast; CAKI-1 renal.
Holding throughout (experiment): inhibition of tumour cell growth, NCI panel, 48 h

The structures appear in SMILES notation.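 Dose response: 5 concentrations. Exposure: 48 h. Format: 96-well plates. Endpoint: linear interpolation; highest concentration if not reached. Definition used: TGI = concentration required for complete inhibition of growth.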

For `COc1ccc(-c2cc(-c3ccc(Nc4ccnc5cc(Cl)ccc45)cc3)nc(N)c2C#N)c2ccccc12`, the TGI in the assay on CCRF-CEM leukemia, with NCI-H522 lung, with RXF 393 renal, in the assay with UACC-257 melanoma, in the assay on HT29 colon and in the assay with SF-539 CNS was more than 100 µM throughout. Moreover, the TGI with TK-10 renal, in the assay with BT-549 breast, with T-47D breast and in the assay with CAKI-1 renal was more than 100 µM in each case.
On to `COc1cc2c(cc1OCCCC(=O)Nc1cc(C(=O)Nc3cc(C(=O)NCCCN(C)C)n(C)n3)n(C)n1)N=CC1CCCN1C2=O` (stereo not given), for which the TGI was determined as 29.7 µM in the assay with CCRF-CEM leukemia; 20.2 µM with NCI-H522 lung; 33.6 µM in the assay on RXF 393 renal; 35.2 µM with UACC-257 melanoma; 30.8 µM in the assay with HT29 colon; 44.1 µM in the assay on SF-539 CNS. Moreover, the TGI with TK-10 renal came out at 35.7 µM; in the assay with BT-549 breast, 26.5 µM; in the assay with T-47D breast, 53 µM; with CAKI-1 renal, 31.2 µM.
For `COc1cccc(/C=C/C2=NN(c3cccc(S(=O)(=O)O)c3)C3(C2)SCC(=O)N3c2nc3ccccc3s2)c1` (stereo not given), the TGI in the assay on CCRF-CEM leukemia is 88.3 µM; in the assay on NCI-H522 lung it was 28.4 µM; in the assay on RXF 393 renal, more than 100 µM; in the assay on UACC-257 melanoma, more than 100 µM; with HT29 colon, more than 100 µM; in the assay on SF-539 CNS, 37.4 µM. The TGI was 81.1 µM in the assay on TK-10 renal, more than 100 µM with BT-549 breast, 52.8 µM in the assay with T-47D breast and more than 100 µM in the assay with CAKI-1 renal.
`COc1cc2[nH]c(-c3ccccc3)cc(=O)c2cc1OC`: the TGI with CCRF-CEM leukemia is more than 65.6 µM; in the assay with NCI-H522 lung, more than 56.3 µM; in the assay with RXF 393 renal it was more than 72.7 µM; in the assay on UACC-257 melanoma it was more than 100 µM; with HT29 colon, 56.7 µM; with SF-539 CNS, 60.5 µM. Further, the TGI in the assay with TK-10 renal was 98.7 µM; in the assay on BT-549 breast, more than 100 µM; with T-47D breast it was more than 100 µM; in the assay on CAKI-1 renal it was more than 100 µM.
On to `COC(=O)/C=C1/OC(c2ccccc2)=C(Cl)C1=O`, for which the TGI with CCRF-CEM leukemia stood at 19.9 µM; with NCI-H522 lung it was 33 µM; with RXF 393 renal it was 35.9 µM; in the assay with UACC-257 melanoma, 66 µM; with HT29 colon, 48.4 µM; in the assay with SF-539 CNS it was 47.1 µM. In addition, the TGI in the assay on TK-10 renal was 51.6 µM; with BT-549 breast, 40.3 µM; with T-47D breast, more than 56.6 µM; in the assay with CAKI-1 renal, 32.7 µM.
On to `COc1ccc2nc3c([N+](=O)[O-])ccc4c3c(c2c1)NCCN4C`, for which the TGI in the assay with CCRF-CEM leukemia is more than 100 µM; in the assay on NCI-H522 lung, 3.31 µM; in the assay on RXF 393 renal, 0.878 µM; in the assay with UACC-257 melanoma, 10.1 µM; with HT29 colon, 12.4 µM; with SF-539 CNS it was 2.62 µM. Further, the TGI with TK-10 renal came to 51.9 µM; with BT-549 breast it was 11.4 µM; with T-47D breast, 7.73 µM; in the assay on CAKI-1 renal, 9.13 µM.
